Values joined by “and” are separate entries in the source; they are usually repeats but may differ in a detail not shown here. Identical values can stand only once.
Tests used:
Assay in all cases: Kinase inhibitor specificity profiling (Reaction Biology Corporation)
Format in all cases: biochemical
Set-up in all cases: % Enzyme Activity (relative to DMSO controls): concentration or dose not given beside the values
[1] = molecular target: T1, panel of 370 protein kinases (Homo sapiens, UniProt Q7KZI7); conditions: 2 h, kinase MARK2/PAR-1Ba; read-out: % Enzyme Activity (relative to DMSO controls)
T1 construct: purchased Reaction Biology Corporation (assay service)

[2] = molecular target: T2, panel of 370 protein kinases (Homo sapiens, UniProt Q8N752); conditions: 2 h, kinase CK1a1L; read-out: % Enzyme Activity (relative to DMSO controls)
T2 construct: purchased Reaction Biology Corporation (assay service)
T2 sequence (Q8N752 whole entry): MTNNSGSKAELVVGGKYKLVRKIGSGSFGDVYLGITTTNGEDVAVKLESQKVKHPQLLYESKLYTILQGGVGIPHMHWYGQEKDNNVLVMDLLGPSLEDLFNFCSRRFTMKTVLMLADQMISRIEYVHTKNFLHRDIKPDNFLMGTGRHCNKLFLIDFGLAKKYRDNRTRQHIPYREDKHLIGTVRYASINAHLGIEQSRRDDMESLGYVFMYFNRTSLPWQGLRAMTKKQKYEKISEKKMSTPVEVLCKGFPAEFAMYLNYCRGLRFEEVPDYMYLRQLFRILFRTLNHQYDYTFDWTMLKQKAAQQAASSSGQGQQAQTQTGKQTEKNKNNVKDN

[3] = molecular target: T3, panel of 370 protein kinases (Homo sapiens, UniProt Q8TDX7); conditions: 2 h, kinase NEK7; read-out: % Enzyme Activity (relative to DMSO controls)
T3 construct: purchased Reaction Biology Corporation (assay service)

[4] = molecular target: T4, panel of 370 protein kinases (Homo sapiens, UniProt P51813); conditions: 2 h, kinase BMX/ETK; read-out: % Enzyme Activity (relative to DMSO controls)
T4 construct: purchased Reaction Biology Corporation (assay service)
T4 sequence (P51813 whole entry): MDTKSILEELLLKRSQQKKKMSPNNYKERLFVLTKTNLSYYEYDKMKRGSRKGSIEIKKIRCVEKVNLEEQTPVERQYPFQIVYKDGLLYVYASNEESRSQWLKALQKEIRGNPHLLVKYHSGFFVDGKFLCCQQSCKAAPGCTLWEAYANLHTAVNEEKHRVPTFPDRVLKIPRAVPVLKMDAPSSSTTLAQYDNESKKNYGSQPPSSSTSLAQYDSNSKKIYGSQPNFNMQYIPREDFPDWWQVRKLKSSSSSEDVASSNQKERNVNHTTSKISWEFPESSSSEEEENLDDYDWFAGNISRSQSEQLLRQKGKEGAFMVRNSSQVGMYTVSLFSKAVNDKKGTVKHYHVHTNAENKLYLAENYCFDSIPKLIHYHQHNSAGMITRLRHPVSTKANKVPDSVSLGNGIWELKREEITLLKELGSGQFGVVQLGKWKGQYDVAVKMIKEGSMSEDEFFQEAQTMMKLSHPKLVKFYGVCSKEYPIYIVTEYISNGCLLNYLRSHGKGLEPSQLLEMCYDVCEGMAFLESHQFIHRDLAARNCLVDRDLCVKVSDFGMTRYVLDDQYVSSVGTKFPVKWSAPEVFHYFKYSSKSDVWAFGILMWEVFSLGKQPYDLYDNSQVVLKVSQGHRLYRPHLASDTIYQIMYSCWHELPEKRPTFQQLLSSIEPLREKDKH

[5] = molecular target: T5, panel of 370 protein kinases (Homo sapiens, UniProt Q09013); conditions: 2 h, kinase DMPK; read-out: % Enzyme Activity (relative to DMSO controls)
T5 construct: purchased Reaction Biology Corporation (assay service)
T5 sequence (Q09013 whole entry): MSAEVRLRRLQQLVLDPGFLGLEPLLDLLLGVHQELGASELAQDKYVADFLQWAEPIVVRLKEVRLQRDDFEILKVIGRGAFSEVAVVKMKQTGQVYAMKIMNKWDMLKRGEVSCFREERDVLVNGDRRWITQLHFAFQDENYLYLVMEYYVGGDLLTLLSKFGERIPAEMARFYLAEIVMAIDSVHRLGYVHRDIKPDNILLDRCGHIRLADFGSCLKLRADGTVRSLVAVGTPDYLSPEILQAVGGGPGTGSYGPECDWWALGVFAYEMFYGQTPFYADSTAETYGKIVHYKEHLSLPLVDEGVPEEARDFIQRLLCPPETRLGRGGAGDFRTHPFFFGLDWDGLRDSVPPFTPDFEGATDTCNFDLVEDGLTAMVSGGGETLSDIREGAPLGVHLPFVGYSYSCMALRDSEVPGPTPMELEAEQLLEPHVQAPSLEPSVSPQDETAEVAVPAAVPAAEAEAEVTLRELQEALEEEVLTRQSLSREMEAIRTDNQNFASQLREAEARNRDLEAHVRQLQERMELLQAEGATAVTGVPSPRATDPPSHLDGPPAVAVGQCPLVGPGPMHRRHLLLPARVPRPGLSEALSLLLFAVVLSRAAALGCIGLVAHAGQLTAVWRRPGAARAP

[6] = molecular target: T6, panel of 370 protein kinases (Homo sapiens, UniProt P16234); conditions: 2 h, kinase PDGFRa; read-out: % Enzyme Activity (relative to DMSO controls)
T6 construct: purchased Reaction Biology Corporation (assay service)

[7] = molecular target: T7, panel of 370 protein kinases (Homo sapiens, UniProt Q8IY84); conditions: 2 h, kinase NIM1; read-out: % Enzyme Activity (relative to DMSO controls)
T7 construct: purchased Reaction Biology Corporation (assay service)

[8] = molecular target: T8, panel of 370 protein kinases (Homo sapiens, UniProt Q15139); conditions: 2 h, kinase PKCmu/PRKD1; read-out: % Enzyme Activity (relative to DMSO controls)
T8 construct: purchased Reaction Biology Corporation (assay service)
T8 sequence (Q15139 whole entry): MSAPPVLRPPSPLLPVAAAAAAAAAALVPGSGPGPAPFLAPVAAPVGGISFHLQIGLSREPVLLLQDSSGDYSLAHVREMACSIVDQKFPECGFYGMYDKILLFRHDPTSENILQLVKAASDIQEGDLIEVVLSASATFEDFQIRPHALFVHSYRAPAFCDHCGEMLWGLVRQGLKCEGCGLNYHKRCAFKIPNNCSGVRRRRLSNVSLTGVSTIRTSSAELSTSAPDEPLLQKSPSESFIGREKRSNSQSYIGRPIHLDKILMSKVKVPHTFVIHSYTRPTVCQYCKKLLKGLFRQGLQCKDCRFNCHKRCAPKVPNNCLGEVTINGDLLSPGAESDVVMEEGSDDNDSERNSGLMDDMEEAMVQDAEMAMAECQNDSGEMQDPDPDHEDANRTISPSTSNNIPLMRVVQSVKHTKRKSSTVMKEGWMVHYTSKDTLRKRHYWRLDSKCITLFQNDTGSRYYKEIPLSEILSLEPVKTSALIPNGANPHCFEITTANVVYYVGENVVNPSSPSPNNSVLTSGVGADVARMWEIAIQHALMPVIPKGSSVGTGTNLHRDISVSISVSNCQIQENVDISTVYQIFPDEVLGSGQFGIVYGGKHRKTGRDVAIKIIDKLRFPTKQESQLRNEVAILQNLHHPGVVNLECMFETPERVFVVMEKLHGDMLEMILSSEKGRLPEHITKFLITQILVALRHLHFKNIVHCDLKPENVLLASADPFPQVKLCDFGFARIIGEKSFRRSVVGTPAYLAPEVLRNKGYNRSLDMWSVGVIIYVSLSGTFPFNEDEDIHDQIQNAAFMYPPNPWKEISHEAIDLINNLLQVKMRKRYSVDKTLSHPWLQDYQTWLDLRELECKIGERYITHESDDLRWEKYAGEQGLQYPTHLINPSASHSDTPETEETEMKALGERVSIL

[9] = molecular target: T9, panel of 370 protein kinases (Homo sapiens, UniProt Q06418); conditions: 2 h, kinase TYRO3/SKY; read-out: % Enzyme Activity (relative to DMSO controls)
T9 construct: purchased Reaction Biology Corporation (assay service)

[10] = molecular target: T10, panel of 370 protein kinases (Homo sapiens, UniProt Q9BZL6); conditions: 2 h, kinase PKD2/PRKD2; read-out: % Enzyme Activity (relative to DMSO controls)
T10 construct: purchased Reaction Biology Corporation (assay service)

[11] = molecular target: T11, panel of 370 protein kinases (Homo sapiens, UniProt Q15746); conditions: 2 h, kinase MLCK/MYLK; read-out: % Enzyme Activity (relative to DMSO controls)
T11 construct: purchased Reaction Biology Corporation (assay service)

[12] = molecular target: T12, panel of 370 protein kinases (Homo sapiens, UniProt Q13163); conditions: 2 h, kinase MEK5; read-out: % Enzyme Activity (relative to DMSO controls)
T12 construct: purchased Reaction Biology Corporation (assay service)
T12 sequence (Q13163 whole entry): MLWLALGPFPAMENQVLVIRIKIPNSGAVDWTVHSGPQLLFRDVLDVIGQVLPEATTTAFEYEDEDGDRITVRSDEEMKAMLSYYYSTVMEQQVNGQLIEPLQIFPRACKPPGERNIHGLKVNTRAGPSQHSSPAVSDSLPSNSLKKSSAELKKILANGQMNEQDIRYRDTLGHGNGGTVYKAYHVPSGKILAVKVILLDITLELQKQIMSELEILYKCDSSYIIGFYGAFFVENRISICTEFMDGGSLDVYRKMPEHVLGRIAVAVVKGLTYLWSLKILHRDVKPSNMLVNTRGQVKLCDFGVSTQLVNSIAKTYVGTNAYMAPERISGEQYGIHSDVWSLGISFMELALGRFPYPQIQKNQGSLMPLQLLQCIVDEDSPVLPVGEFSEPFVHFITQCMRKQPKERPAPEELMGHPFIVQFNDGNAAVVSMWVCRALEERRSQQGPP

[13] = molecular target: T13, panel of 370 protein kinases (Homo sapiens, UniProt Q8TDC3); conditions: 2 h, kinase BRSK1; read-out: % Enzyme Activity (relative to DMSO controls)
T13 construct: purchased Reaction Biology Corporation (assay service)

[14] = molecular target: T14, panel of 370 protein kinases (Homo sapiens, UniProt P42681); conditions: 2 h, kinase TXK; read-out: % Enzyme Activity (relative to DMSO controls)
T14 construct: purchased Reaction Biology Corporation (assay service)

[15] = molecular target: T15, panel of 370 protein kinases (Homo sapiens, UniProt Q8NE63); conditions: 2 h, kinase HIPK4; read-out: % Enzyme Activity (relative to DMSO controls)
T15 construct: purchased Reaction Biology Corporation (assay service)

[16] = molecular target: T16, panel of 370 protein kinases (Homo sapiens, UniProt P22612); conditions: 2 h, kinase PKAcg; read-out: % Enzyme Activity (relative to DMSO controls)
T16 construct: purchased Reaction Biology Corporation (assay service)
T16 sequence (P22612 whole entry): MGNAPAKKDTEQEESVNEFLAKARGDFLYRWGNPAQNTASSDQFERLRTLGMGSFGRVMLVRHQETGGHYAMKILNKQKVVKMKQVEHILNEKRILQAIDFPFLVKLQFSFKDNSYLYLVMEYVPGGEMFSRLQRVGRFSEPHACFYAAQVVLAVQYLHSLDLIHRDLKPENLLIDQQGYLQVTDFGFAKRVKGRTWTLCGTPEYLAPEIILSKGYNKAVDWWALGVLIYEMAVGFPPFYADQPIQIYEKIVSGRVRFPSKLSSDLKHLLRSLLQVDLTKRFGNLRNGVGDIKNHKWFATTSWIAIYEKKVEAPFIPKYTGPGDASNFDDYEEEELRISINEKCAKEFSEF

[17] = molecular target: T17, panel of 370 protein kinases (Homo sapiens, UniProt Q02156); conditions: 2 h, kinase PKCepsilon; read-out: % Enzyme Activity (relative to DMSO controls)
T17 construct: purchased Reaction Biology Corporation (assay service)

[18] = molecular target: T18, panel of 370 protein kinases (Homo sapiens, UniProt P10398); conditions: 2 h, kinase ARAF; read-out: % Enzyme Activity (relative to DMSO controls)
T18 construct: purchased Reaction Biology Corporation (assay service)
T18 sequence (P10398 whole entry): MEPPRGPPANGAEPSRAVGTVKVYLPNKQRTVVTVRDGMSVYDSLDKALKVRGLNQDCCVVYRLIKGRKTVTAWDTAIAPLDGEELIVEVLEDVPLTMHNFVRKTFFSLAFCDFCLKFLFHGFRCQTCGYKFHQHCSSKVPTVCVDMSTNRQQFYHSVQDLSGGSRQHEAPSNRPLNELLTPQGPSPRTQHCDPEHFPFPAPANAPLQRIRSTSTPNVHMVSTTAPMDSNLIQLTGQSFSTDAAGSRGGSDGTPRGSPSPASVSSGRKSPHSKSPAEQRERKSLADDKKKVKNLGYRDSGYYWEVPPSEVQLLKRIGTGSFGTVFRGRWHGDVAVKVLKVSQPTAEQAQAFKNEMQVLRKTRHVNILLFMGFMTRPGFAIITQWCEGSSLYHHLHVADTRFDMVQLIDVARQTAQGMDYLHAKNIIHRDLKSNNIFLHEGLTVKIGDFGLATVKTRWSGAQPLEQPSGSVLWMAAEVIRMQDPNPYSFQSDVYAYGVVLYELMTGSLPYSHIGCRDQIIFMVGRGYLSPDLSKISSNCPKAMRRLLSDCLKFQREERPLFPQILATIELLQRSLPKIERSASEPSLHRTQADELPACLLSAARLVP

[19] = molecular target: T19, panel of 370 protein kinases (Homo sapiens, UniProt Q16584); conditions: kinase MLK3/MAP3K11
T19 construct: purchased Reaction Biology Corporation (assay service)
T19 sequence (Q16584 whole entry): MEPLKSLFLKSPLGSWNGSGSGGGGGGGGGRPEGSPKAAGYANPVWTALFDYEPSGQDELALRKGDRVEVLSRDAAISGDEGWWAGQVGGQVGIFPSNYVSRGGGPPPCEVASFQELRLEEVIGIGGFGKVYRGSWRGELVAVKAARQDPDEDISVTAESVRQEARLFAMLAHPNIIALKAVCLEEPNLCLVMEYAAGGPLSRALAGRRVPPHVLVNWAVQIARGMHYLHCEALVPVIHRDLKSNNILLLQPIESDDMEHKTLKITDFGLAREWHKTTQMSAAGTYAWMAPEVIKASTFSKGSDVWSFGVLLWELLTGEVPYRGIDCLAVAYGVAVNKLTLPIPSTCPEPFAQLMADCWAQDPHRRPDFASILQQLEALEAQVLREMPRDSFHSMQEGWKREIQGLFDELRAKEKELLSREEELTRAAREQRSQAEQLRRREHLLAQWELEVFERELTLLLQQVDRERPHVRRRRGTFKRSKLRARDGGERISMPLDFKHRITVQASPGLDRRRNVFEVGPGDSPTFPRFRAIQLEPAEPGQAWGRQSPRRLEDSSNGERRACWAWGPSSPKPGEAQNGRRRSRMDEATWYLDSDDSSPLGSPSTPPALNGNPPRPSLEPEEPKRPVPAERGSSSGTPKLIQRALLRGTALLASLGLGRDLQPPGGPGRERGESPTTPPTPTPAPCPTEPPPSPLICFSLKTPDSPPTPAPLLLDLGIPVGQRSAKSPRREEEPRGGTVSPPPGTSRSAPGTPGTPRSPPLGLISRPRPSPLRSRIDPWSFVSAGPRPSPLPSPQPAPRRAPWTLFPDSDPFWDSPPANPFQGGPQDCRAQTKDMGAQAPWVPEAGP

[20] = molecular target: T20, panel of 370 protein kinases (Homo sapiens, UniProt Q96RR4); conditions: 2 h, kinase CAMKK2; read-out: % Enzyme Activity (relative to DMSO controls)
T20 construct: purchased Reaction Biology Corporation (assay service)

[21] = molecular target: T21, panel of 370 protein kinases (Homo sapiens, UniProt P17948); conditions: 2 h, kinase FLT1/VEGFR1; read-out: % Enzyme Activity (relative to DMSO controls)
T21 construct: purchased Reaction Biology Corporation (assay service)

CCN1CCN(C(=O)c2ccc(Nc3ncc(F)c(-c4ccc5nc(N(C)C)sc5c4)n3)nc2)CC1 [YK-2-69]
remaining activity at 1 µM [1]: 83.2% | remaining activity at 1 µM [2]: 103% | remaining activity at 1 µM [3]: 96.7% | remaining activity at 1 µM [4]: 80.6% | remaining activity at 1 µM [5]: 95.8% | remaining activity at 1 µM [6]: 104% | remaining activity at 1 µM [7]: 96.9% | remaining activity at 1 µM [8]: 89.6% | remaining activity at 1 µM [9]: 96.6% | remaining activity at 1 µM [10]: 80.8% | remaining activity at 1 µM [11]: 97.5% | remaining activity at 1 µM [12]: 96.3% | remaining activity at 1 µM [13]: 94% | remaining activity at 1 µM [14]: 95.6% | remaining activity at 1 µM [15]: 56.5% | remaining activity at 1 µM [16]: 96.9% | remaining activity at 1 µM [17]: 91.3% | remaining activity at 1 µM [18]: 90.6% | % Enzyme Activity (relative to DMSO controls) [19]: 97.08% and 87.23% | remaining activity at 1 µM [20]: 94.6% | remaining activity at 1 µM [21]: 101%

From article PMC9133015 (Nature Communications, 2022)
